Reference: patent US6906205B2, “Spiro and dispiro 1,2,4-trioxolane antimalarials” (Medicines for Malaria Venture MMV, priority 2002, dated 2005)
In brackets after ≈: the same amount, converted by molar mass.

Assays:
[1] = test system: Schistosoma mansoni 21-day-old schistosomules; test: effect on 21-day-old schistosomules in mice; type: in vivo; conditions: single 200 mg/kg per os, female mice
Procedure: All groups were killed 4 weeks after treatment and the liver and intestine were removed and separated. The liver and intestine were compressed and alive male and female worms could be seen and counted. The effect of the compounds was evaluated by mean total and female worm burden.

[2] = test system: ANKA strain of P. berghei; test: single dose STI in vivo screen in infected mice; parameters: species or system Plasmodium berghei; conditions: for Activity (%) po / Activity (%) sc / Activity (%) SSVpo: percent reduction in parasitemia day 3 post-infection, mice; for Activity (%) po / Survival (days) po: single 10 mg/kg po in 3% ethanol and 7% Tween 80; for Activity (%) sc / Survival (days) sc: single 10 mg/kg sc in 3% ethanol and 7% Tween 80; for Activity (%) SSVpo: single po dose in standard suspending vehicle (SSV); for Survival (days) po / Survival (days) sc / Survival (days) SSVpo: untreated control 5.6 ± 0.3; for Survival (days) SSVpo: single po dose in SSV
In short: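 Groups of 3-5 Moro SPF or NMRI mice infected with the ANKA strain of P. berghei received a single dose of trioxolane on day one post-infection. The compound was given in 3% ethanol and 7% Tween 80 or in SSV (0.5% w/v CMC, 0.5% v/v benzyl alcohol, 0.4% v/v Tween 80, 0.9% w/v sodium chloride in water). Antimalarial activity was scored as percent reduction in parasitemia on day three and as survival time versus untreated controls. Survival to day 30 counted as cure.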

[3] = test system: P. falciparum NF54 strain (sensitive to standard antimalarials); test: semiautomated microdilution assay, [3H]-hypoxanthine incorporation, NF54 strain; type: cell-based, Plasmodium falciparum; conditions: NF54 strain, 72 h incubation
In short: (§1)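 Logit regression analysis was used to estimate IC50 values. Parasites were intraerythrocytic forms from asynchronous stock cultures, and compounds were tested by semiautomated microdilution.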

[4] = test system: P. falciparum K1 strain (Thailand resistant to chloroquine); test: semiautomated microdilution assay, [3H]-hypoxanthine incorporation, K1 strain; type: cell-based, Plasmodium falciparum; conditions: K1 strain, 72 h incubation
In short: as §1

SMILES | % reduction of schistosomule growth at day 21 after per os application of 200 mg/kg, FWR (%) [1] | % reduction of schistosomule growth at day 21 after per os application of 200 mg/kg, TWR (%) [1] | Activity (%) po [2] | Activity (%) sc [2] | Activity (%) SSVpo [2] | Survival (days) po [2] | Survival (days) sc [2] | Survival (days) SSVpo [2] | IC50 (ng/ml) NF54 [3] | IC50 (ng/ml) K1 [4] | Activity (%) po ([2]; 10 mg/kg) | Activity (%) sc ([2]; 10 mg/kg) | Survival (days) po ([2]; 10 mg/kg) | Survival (days) sc ([2]; 10 mg/kg)
CS(=O)(=O)N1CCC2(CC1)OOC1(O2)C2CC3CC(C2)CC1C3 (stereo not shown) [OZ56] | 66% | 69% | 93% | 99.97% | 63% | 6.7 days | 10.3 days | 5.7 days | 0.64 ng/mL (≈ 1.86 nM) | 0.59 ng/mL (≈ 1.72 nM) |  |  |  | 
c1cn(C[C@H]2CC[C@]3(CC2)OOC2(O3)C3CC4CC(C3)CC2C4)cn1 (stereo partly shown) [OZ145] | 83% | 80% |  |  | 99.21% |  |  | 10.7 days | 0.76 ng/mL (≈ 2.21 nM) | 0.50 ng/mL (≈ 1.45 nM) | 99.82% | 99.87% | 8.3 days | 10.7 days
O=[N+]([O-])c1ccc(N2CCC3(CC2)OOC2(O3)C3CC4CC(C3)CC2C4)cc1 (stereo not shown) [OZ151] | 19% | 19% | 71% | 99.63% | 71% | 7.3 days | 11.0 days | 7.3 days | 4.0 ng/mL (≈ 10.4 nM) | 3.8 ng/mL (≈ 9.83 nM) |  |  |  | 
OC12CC3CC(C1)C1(OOC4(CCC5(CC4)OCCO5)O1)C(C3)C2 (stereo not shown) [OZ152] | 11% | 19% |  |  | 12% | 6.3 days |  | 6.7 days | 7.2 ng/mL (≈ 21.3 nM) | 3.2 ng/mL (≈ 9.46 nM) | 0% | 22% |  | 6.7 days
CN1CCN(C(=O)N2CCC3(CC2)OOC2(O3)C3CC4CC(C3)CC2C4)CC1 (stereo not shown) [OZ157] | 68% | 65% | 90% | 97% | 80% | 7.3 days | 8.3 days | 8.3 days | 0.22 ng/mL (≈ 0.562 nM) | 0.20 ng/mL (≈ 0.511 nM) |  |  |  | 
C1CCN(C2CCC3(CC2)OOC2(O3)C3CC4CC(C3)CC2C4)CC1 (stereo not shown) [OZ159] | 19% | 19% | 34% | 98% | 31% | 6.7 days | 9.0 days | 6.7 days | 0.94 ng/mL (≈ 2.71 nM) | 0.70 ng/mL (≈ 2.01 nM) |  |  |  | 
c1ccc(CNC2CCC3(CC2)OOC2(O3)C3CC4CC(C3)CC2C4)cc1 (stereo not shown) [OZ160] | 0% | 15% | 45% | 99.94% | 43% | 6.3 days | 12.0 days | 6.7 days | 0.87 ng/mL (≈ 2.35 nM) | 0.70 ng/mL (≈ 1.89 nM) |  |  |  | 
NC[C@H]1CC[C@]2(CC1)OOC1(O2)C2CC3CC(C2)CC1C3 (stereo partly shown) [OZ163] | 80% |  |  | 100% | 99.94% |  |  | 9.0 days | 0.2/0.2 ng/ml | 0.2/0.2 ng/ml | 99.90% |  | 8.0 days | 9.7 days
